Experimental data taken from PubChem BioAssay (NCI).
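These data come from cells grown in 96-well plates and exposed to compound for 48 hours at five concentrations. GI50 marks 50% less growth. TGI: total growth inhibition.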

What was measured:
Assay in all cases: NCI-60 cell line screen, 48 h
OVCAR-8 ovarian = tested on: OVCAR-8 ovarian
COLO 205 colon = tested on: COLO 205 colon
SF-268 CNS = tested on: SF-268 CNS
A498 renal = tested on: A498 renal
HCT-15 colon = tested on: HCT-15 colon
OVCAR-5 ovarian = tested on: OVCAR-5 ovarian
HCT-116 colon = tested on: HCT-116 colon
A549 NSCLC = tested on: A549 NSCLC
CAKI-1 renal = tested on: CAKI-1 renal

Compound | TGI (OVCAR-8 ovarian) | TGI (COLO 205 colon) | TGI (SF-268 CNS) | TGI (A498 renal) | TGI (HCT-15 colon) | TGI (OVCAR-5 ovarian) | TGI (HCT-116 colon) | TGI (A549 NSCLC) | TGI (CAKI-1 renal) | GI50 (OVCAR-8 ovarian) | GI50 (COLO 205 colon) | GI50 (SF-268 CNS) | GI50 (CAKI-1 renal) | GI50 (HCT-15 colon) | GI50 (OVCAR-5 ovarian) | GI50 (A549 NSCLC) | GI50 (HCT-116 colon) | GI50 (A498 renal)
COc1ccc(N/N=C(\CCN(C)C)c2ccccc2)cc1 | 27.2 µM | 7.84 µM | > 100 µM | 29.6 µM | 4.57 µM | 91.7 µM | 13.8 µM |  |  |  |  |  |  |  |  |  |  | 
CC(=O)OC1CC2Oc3ccc(C)cc3C(C)(O2)C1=O (configuration not stated) | > 100 µM | > 100 µM |  |  | > 100 µM |  | > 100 µM | > 100 µM |  |  |  |  |  |  |  |  |  | 
O=C1c2ccccc2NC1(c1ccccc1)c1c(-c2ccccc2)[nH]c2ccccc12 (configuration not stated) | > 100 µM | 35.3 µM |  | > 100 µM | > 100 µM |  | > 100 µM | > 100 µM | > 100 µM |  |  |  |  |  |  |  |  | 
CC(=O)C1C(=O)NC(=O)C1=O (configuration not stated) | > 100 µM | > 100 µM | > 100 µM | > 100 µM | > 100 µM | > 100 µM | > 100 µM |  | > 100 µM |  |  |  |  |  |  |  |  | 
COc1ccc(NC(=O)CC/C(CC(=O)C(C)(C)C)=N\NC(=O)C(N)=O)cc1 | > 100 µM | > 100 µM | > 100 µM |  | > 100 µM | > 100 µM | > 100 µM | > 100 µM | > 100 µM |  |  |  |  |  |  |  |  | 
C#CCN(N=O)C(=O)NC(CCCNC(=O)OCc1ccccc1)C(=O)OCc1ccccc1 (configuration not stated) | > 100 µM | > 100 µM | > 100 µM | > 100 µM | > 100 µM | > 100 µM | > 100 µM | > 100 µM | 47.2 µM |  |  |  |  |  |  |  |  | 
O=Cc1ccc(-c2ccc(-c3nc4ccccc4o3)cc2)s1 | > 100 µM | > 100 µM | 81.5 µM |  | > 100 µM | > 100 µM | 42.6 µM | > 100 µM | 61.1 µM | 35 µM | 32.1 µM | 28.4 µM | 25.2 µM | 34.2 µM | 78.4 µM | 70.5 µM | 19.3 µM | 
Cc1cc2cn3c4ccc(O)cc4[nH]c(=O)c3c2cc1C | 1.31 µM | 0.927 µM |  | 1.43 µM | 1.18 µM | 2.02 µM |  | 1.04 µM | 1.5 µM | 0.0359 µM | 0.174 µM |  | 0.0323 µM | 0.032 µM | 0.223 µM | 0.0308 µM |  | 0.0319 µM
COc1ccc(Cc2cc3c(cc2OCC(=O)O)OCO3)cc1 | > 100 µM | > 100 µM | > 100 µM | > 100 µM |  | > 100 µM | > 100 µM | > 100 µM | > 100 µM |  |  |  |  |  |  |  |  | 
COC(=O)CCC(=O)Nc1cc(Cl)ccc1Cl | > 100 µM |  | > 100 µM |  | > 100 µM | > 100 µM | > 100 µM | > 100 µM | > 100 µM |  |  |  |  |  |  |  |  | 
CCOC(=O)C(=O)Nc1ccc(Cl)cc1C | > 100 µM | > 100 µM | > 100 µM |  | > 100 µM | > 100 µM | > 100 µM | > 100 µM | > 100 µM |  |  |  |  |  |  |  |  | 
CC(=O)O[C@H]1CCC2[C@@H]3CCC4=C(O)C(=O)C(C#N)C[C@]4(C)C3CC[C@@]21C (some centres not stated) | > 100 µM | 84.4 µM | > 100 µM | 0.891 µM | > 100 µM | > 100 µM | > 100 µM | > 100 µM |  |  |  |  |  |  |  |  |  | 
CCN(CC)c1ccc2c(c1)Oc1nc(N)c(C#N)c(N)c1C2Sc1ccc(OC)cc1 (configuration not stated) | 3.76 µM | 3.65 µM | 3.58 µM | 4.14 µM | 3.11 µM | 4.6 µM | 3.12 µM | 3.59 µM |  | 1.87 µM | 1.88 µM | 1.85 µM |  | 1.53 µM | 2.04 µM | 1.99 µM | 1.65 µM | 2.29 µM
O=c1cc(-c2ccccc2)oc2cc(O)cc(O)c12 |  | 37.9 µM | 74.8 µM |  | 64 µM | 37.4 µM | 50.9 µM | > 100 µM |  |  |  |  |  |  |  |  |  | 
CN(CCc1ccccn1)c1nc(=[N+](C)C)ss1 | > 100 µM | > 100 µM | > 100 µM | > 100 µM | > 100 µM | > 100 µM |  | > 100 µM | > 100 µM |  |  |  |  |  |  |  |  | 
CC(C)C1CC2C(=O)N(c3ccccc3)C(=O)C2c2[nH]c3ccccc3c21 (configuration not stated) | 40.1 µM |  |  | > 100 µM | > 100 µM | > 100 µM | 14.8 µM | > 100 µM | > 100 µM |  |  |  |  |  |  |  |  | 
O=C(c1ccccc1)c1oc2ccc(Br)cc2c1-c1cnn(-c2ccccc2)c1 |  | > 100 µM | > 100 µM |  | > 100 µM | > 100 µM |  |  | > 100 µM |  |  |  |  |  |  |  |  | 
CN(C)CCSc1cccc(-c2cc(-c3cccc(SCCN(C)C)c3)nc(SCCN(C)C)n2)c1 | 2.78 µM |  |  |  | 4.67 µM | 19.5 µM | 2.95 µM | 3.47 µM |  |  |  |  |  |  |  |  |  | 
Cc1ccc(C2NC(=O)c3ccccc3N2)s1 (configuration not stated) | 54.2 µM |  | > 100 µM | > 100 µM | > 100 µM | > 100 µM | > 100 µM | > 100 µM |  |  |  |  |  |  |  |  |  | 
CC1=C(C(=O)Nc2cc(=O)n(C)c(=O)n2C)C(c2ccc([N+](=O)[O-])cc2)C(C(=O)Nc2cc(=O)n(C)c(=O)n2C)=C(C)N1 | > 100 µM | > 100 µM | > 100 µM | > 100 µM | > 100 µM | > 100 µM | > 100 µM | > 100 µM |  |  |  |  |  |  |  |  |  | 
